The record followed here is US20180000085A1, “USE OF PICOLINAMIDE COMPOUNDS WITH FUNGICIDAL ACTIVITY” (DOW AGROSCIENCES LLC, priority 2014, published 2018).

Structures are written as SMILES.

In one experiment the test system is Puccinia triticina. Briefly: Wheat brown rust (PUCCRT) disease control on wheat seedlings. Type of experiment: in vivo. More on the design: key to PUCCRT 3DC, HV activity at 100 ppm (% control rating) / PUCCRT disease control, 3DC / PUCCRT 1DP disease control rating, HV activity / PUCCRT 3DC disease control rating, HV activity / PUCCRT 3DC, LV activity at 125.1 g/H (% Control rating) / PUCCRT 1DP, LV activity at 125.1 g/H (% Control rating) / PUCCRT 3DC disease control rating, LV activity at 125.1 g/H / PUCCRT 1DP disease control rating, LV activity at 125.1 g/H / PUCCRT 3DC disease control rating, HV activity at 100 ppm / PUCCRT 1DP disease control rating, HV activity at 100 ppm / HV activity at 100 ppm PUCCRT 3DC (disease control rating) / LV activity at 125.1 g/H PUCCRT 1DP (disease control rating) / LV activity at 125.1 g/H PUCCRT 3DC (disease control rating): A: > 80; B: ≤ 80; C: Not Tested; D: No Activity Observed in the Reported Assay. The conditions noted are these: for PUCCRT 1DP disease control rating, HV activity / PUCCRT 3DC disease control rating, HV activity: HV application at 100 ppm; for PUCCRT 1DP disease control rating, LV activity at 125.1 g/H: 1 day protectant; for PUCCRT 3DC disease control rating, LV activity at 125.1 g/H: 3 day curative.

The subject of another experiment is Zymoseptoria tritici. Briefly: Leaf blotch of wheat (SEPTTR) disease control on wheat seedlings. In kind it is in vivo. Details: key to SEPTTR 1DP, HV activity at 100 ppm (% control rating) / SEPTTR 3DC, HV activity at 100 ppm (% control rating) / SEPTTR disease control, 1DP / SEPTTR disease control, 3DC / SEPTTR 1DP disease control rating, HV activity / SEPTTR 3DC disease control rating, HV activity / SEPTTR 3DC, LV activity at 125.1 g/H (% Control rating) / SEPTTR 1DP, LV activity at 125.1 g/H (% Control rating) / SEPTTR 1DP disease control rating, LV activity at 125.1 g/H / SEPTTR 3DC disease control rating, LV activity at 125.1 g/H / SEPTTR 3DC disease control rating, HV activity at 100 ppm / SEPTTR 1DP disease control rating, HV activity at 100 ppm / HV activity at 100 ppm SEPTTR 3DC (disease control rating) / HV activity at 100 ppm SEPTTR 1DP (disease control rating) / LV activity at 125.1 g/H SEPTTR 1DP (disease control rating) / LV activity at 125.1 g/H SEPTTR 3DC (disease control rating): A: > 80; B: ≤ 80; C: Not Tested; D: No Activity Observed in the Reported Assay. The following applies: for SEPTTR 1DP disease control rating, HV activity / SEPTTR 3DC disease control rating, HV activity: HV application at 100 ppm; for SEPTTR 1DP disease control rating, LV activity at 125.1 g/H: 1 day protectant; for SEPTTR 3DC disease control rating, LV activity at 125.1 g/H: 3 day curative.

Where [1] appears, read: low volume application, 125.1 g/H, 1 Day Protectant, wheat brown rust.
Setting [2] is: low volume application, 125.1 g/H, 3 Day Curative, wheat brown rust.
The mark [3] stands for this setting: low volume application, 125.1 g/H, 1 Day Protectant, wheat leaf blotch.
[4] abbreviates: low volume application, 125.1 g/H, 3 Day Curative, wheat leaf blotch.
Where [5] appears, read: 1 Day Protectant, wheat brown rust.
The mark [6] stands for this setting: 3 Day Curative, wheat brown rust.
Setting [7] is: 1 Day Protectant, wheat leaf blotch.
[8] abbreviates: 3 Day Curative, wheat leaf blotch.
Where [9] appears, read: low volume application, 125.1 g/H, 1 Day Protectant.
Where [10] appears, read: low volume application, 125.1 g/H, 3 Day Curative.
Setting [11] is: low volume application, 125.1 g/H.

In the case of `CCCC(OC(=O)C(C)NC(=O)c1nccc(OC)c1OCOC(C)=O)C(Oc1ccccc1)C(C)C` (stereo not shown) [Cmpd 1096], the “LV activity at 125.1 g/H PUCCRT 1DP (disease control rating)” value (“LV activity at 125.1 g/H PUCCRT 1DP” for short) with Puccinia triticina (setting [1]) was “D”. Further, the “LV activity at 125.1 g/H PUCCRT 3DC (disease control rating)” value (from here on “LV activity at 125.1 g/H PUCCRT 3DC”) in the experiment with Puccinia triticina (setting [2]) is “D”. For the same compound, the “LV activity at 125.1 g/H SEPTTR 1DP (disease control rating)” value (from here on “LV activity at 125.1 g/H SEPTTR 1DP”) with Zymoseptoria tritici (setting [3]) was “D”. Moreover, in the experiment on Zymoseptoria tritici (setting [4]), the “LV activity at 125.1 g/H SEPTTR 3DC (disease control rating)” value (from here on “LV activity at 125.1 g/H SEPTTR 3DC”) was “B (≤ 80)”.

For `CC(C)C[C@@H](Oc1cccc(F)c1)[C@H](C)OC(=O)[C@H](C)NC(=O)c1ncccc1O` [Cmpd 1035], the “HV activity at 100 ppm PUCCRT 1DP (disease control rating)” value with Puccinia triticina (HV application, 100 ppm, 1 Day Protectant, wheat brown rust) was “A (> 80)”. For the same compound, the “HV activity at 100 ppm PUCCRT 3DC (disease control rating)” value in the experiment on Puccinia triticina (HV application, 100 ppm, 3 Day Curative, wheat brown rust) is given as “A (> 80)”. In the experiment on Zymoseptoria tritici (HV application, 100 ppm, 1 Day Protectant, wheat leaf blotch), the “HV activity at 100 ppm SEPTTR 1DP (disease control rating)” value is “B (≤ 80)”. Moreover, the “HV activity at 100 ppm SEPTTR 3DC (disease control rating)” value with Zymoseptoria tritici (HV application, 100 ppm, 3 Day Curative, wheat leaf blotch) is recorded as “D”.

As for `CCC(CC)C(Oc1ccc(-c2ccccc2)cc1)C(C)OC(=O)C(C)NC(=O)c1nccc(OC)c1O` (stereo not shown) [Cmpd 387], the “PUCCRT 1DP disease control rating, HV activity” value in the experiment with Puccinia triticina (setting [5]) is on record as “B (≤ 80)”. Moreover, in the experiment with Puccinia triticina (setting [6]), the “PUCCRT 3DC disease control rating, HV activity” value was “D”. In the experiment with Zymoseptoria tritici (setting [7]), the “SEPTTR 1DP disease control rating, HV activity” value is given as “D”. Besides, the “SEPTTR 3DC disease control rating, HV activity” value in the experiment on Zymoseptoria tritici (setting [8]) is listed as “D”.

Consider `CCC(CC)[C@@H](Oc1cc(F)ccc1F)[C@H](C)OC(=O)[C@H](C)NC(=O)c1nccc(OC)c1OCOC(C)=O` [Cmpd 591], for which the “PUCCRT 1DP, LV activity at 125.1 g/H (% Control rating)” value with Puccinia triticina (setting [9]) is recorded as “A (> 80)”. Moreover, the “PUCCRT 3DC, LV activity at 125.1 g/H (% Control rating)” value in the experiment with Puccinia triticina (setting [10]) is “A (> 80)”. The “SEPTTR 1DP, LV activity at 125.1 g/H (% Control rating)” value in the experiment with Zymoseptoria tritici (setting [9]) is on record as “B (≤ 80)”. Moreover, the “SEPTTR 3DC, LV activity at 125.1 g/H (% Control rating)” value in the experiment on Zymoseptoria tritici (setting [10]) is on record as “A (> 80)”.

Take `COc1ccnc(C(=O)N[C@@H](C)C(=O)O[C@@H](C)[C@H](OCC2CC2)C2CCCCC2)c1OC(C)=O` [Cmpd 882]: in the experiment on Puccinia triticina (setting [11]), the “PUCCRT 1DP disease control rating, LV activity at 125.1 g/H” value is “A (> 80)” and the “PUCCRT 3DC disease control rating, LV activity at 125.1 g/H” value is reported as “A (> 80)”. Moreover, in the experiment on Zymoseptoria tritici (setting [11]), the “SEPTTR 1DP disease control rating, LV activity at 125.1 g/H” value is recorded as “D” and the “SEPTTR 3DC disease control rating, LV activity at 125.1 g/H” value is “B (≤ 80)”.

Turning to `CCCC(Oc1ccccc1)C(C)OC(=O)C(C)NC(=O)c1nccc(OC)c1O` (stereo not shown) [Cmpd 438], the “PUCCRT 1DP disease control rating, HV activity” value with Puccinia triticina (setting [5]) is on record as “A (> 80)”. For the same compound, the “PUCCRT 3DC disease control rating, HV activity” value in the experiment with Puccinia triticina (setting [6]) is given as “A (> 80)”. In the experiment on Zymoseptoria tritici (setting [7]), the “SEPTTR 1DP disease control rating, HV activity” value is listed as “A (> 80)”. The “SEPTTR 3DC disease control rating, HV activity” value in the experiment on Zymoseptoria tritici (setting [8]) was “A (> 80)”.

`COc1ccnc(C(=O)N[C@@H](C)C(=O)O[C@@H](C)[C@H](Oc2ccccc2)C(C)(C)C)c1OC(C)=O` [Cmpd 1065]: the “LV activity at 125.1 g/H PUCCRT 1DP” value in the experiment on Puccinia triticina (setting [1]) was “A (> 80)”. Moreover, in the experiment on Puccinia triticina (setting [2]), the “LV activity at 125.1 g/H PUCCRT 3DC” value was “A (> 80)”. Moreover, the “LV activity at 125.1 g/H SEPTTR 1DP” value with Zymoseptoria tritici (setting [3]) is recorded as “B (≤ 80)”. Further, in the experiment on Zymoseptoria tritici (setting [4]), the “LV activity at 125.1 g/H SEPTTR 3DC” value was “A (> 80)”.

`COc1ccnc(C(=O)N[C@@H](C)C(=O)O[C@@H](C)[C@@H](CC(C)C)OCC(C)C)c1OC(C)=O` [Cmpd 1111]: the “LV activity at 125.1 g/H PUCCRT 1DP” value with Puccinia triticina (setting [1]) is “A (> 80)”. In the experiment on Puccinia triticina (setting [2]), the “LV activity at 125.1 g/H PUCCRT 3DC” value is “A (> 80)”. Further, the “LV activity at 125.1 g/H SEPTTR 1DP” value with Zymoseptoria tritici (setting [3]) is recorded as “B (≤ 80)”. For the same compound, the “LV activity at 125.1 g/H SEPTTR 3DC” value with Zymoseptoria tritici (setting [4]) is “A (> 80)”.

As to `COc1ccnc(C(=O)N[C@@H](C)C(=O)O[C@@H](C)[C@H](OCC2CC2)c2ccccc2)c1O` [Cmpd 319], the “PUCCRT 1DP disease control rating, HV activity” value in the experiment on Puccinia triticina (setting [5]) is listed as “A (> 80)”. In addition, the “PUCCRT 3DC disease control rating, HV activity” value in the experiment on Puccinia triticina (setting [6]) is reported as “B (≤ 80)”. For the same compound, the “SEPTTR 1DP disease control rating, HV activity” value with Zymoseptoria tritici (setting [7]) is given as “A (> 80)”. Also, in the experiment on Zymoseptoria tritici (setting [8]), the “SEPTTR 3DC disease control rating, HV activity” value was “A (> 80)”.

In the case of `CCC(CC)C(Oc1ccc(Cl)cc1Cl)C(C)OC(=O)C(CC(C)C)NC(=O)c1nccc(OC)c1OCOC(C)=O` (stereo not shown) [Cmpd 684], in the experiment with Puccinia triticina (setting [11]), the “PUCCRT 1DP disease control rating, LV activity at 125.1 g/H” value was “B (≤ 80)” and the “PUCCRT 3DC disease control rating, LV activity at 125.1 g/H” value is recorded as “D”. Further, in the experiment with Zymoseptoria tritici (setting [11]), the “SEPTTR 1DP disease control rating, LV activity at 125.1 g/H” value is listed as “D” and the “SEPTTR 3DC disease control rating, LV activity at 125.1 g/H” value was “D”.
